Experimental data: PubChem BioAssay (NCI)
Values joined by “and” are separate entries in the source; they are usually repeats but may differ in a detail not shown here. Equal values may be shown once.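 Protocol summary: plate cells (96-well), add compound at 5 concentrations, incubate 48 h, interpolate endpoints linearly. At the GI50, growth is halved. TGI marks complete inhibition of growth.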

Experiments:
Test in all cases: growth of human tumour cells (NCI), 48 h
OVCAR-4 ovarian = system: OVCAR-4 ovarian
RXF 393 renal = system: RXF 393 renal
SW-620 colon = system: SW-620 colon
HCT-116 colon = system: HCT-116 colon
MALME-3M melanoma = system: MALME-3M melanoma
MOLT-4 leukemia = system: MOLT-4 leukemia
SNB-75 CNS = system: SNB-75 CNS
NCI-H460 lung = system: NCI-H460 lung
UACC-257 melanoma = system: UACC-257 melanoma
OVCAR-3 ovarian = system: OVCAR-3 ovarian

| SMILES | GI50 (OVCAR-4 ovarian) | TGI (OVCAR-4 ovarian) | GI50 (RXF 393 renal) | TGI (RXF 393 renal) | GI50 (SW-620 colon) | TGI (SW-620 colon) | GI50 (HCT-116 colon) | TGI (HCT-116 colon) | GI50 (MALME-3M melanoma) | TGI (MALME-3M melanoma) | GI50 (MOLT-4 leukemia) | TGI (MOLT-4 leukemia) | GI50 (SNB-75 CNS) | TGI (SNB-75 CNS) | GI50 (NCI-H460 lung) | TGI (NCI-H460 lung) | GI50 (UACC-257 melanoma) | TGI (UACC-257 melanoma) | GI50 (OVCAR-3 ovarian) | TGI (OVCAR-3 ovarian) |
| --- | --- | --- | --- | --- | --- | --- | --- | --- | --- | --- | --- | --- | --- | --- | --- | --- | --- | --- | --- | --- |
| CCOC(=O)C#Cc1c(C(=O)OCC)nnn1[C@@H]1O[C@H](COC)[C@@H](OC)[C@H]1OC | 2.02 µM | 4.43 µM | 1.97 µM | 4.14 µM | 1.99 µM | 4.06 µM | 3.33 µM | 10.7 µM | 1.95 µM | 3.9 µM | 1.92 µM | 4.39 µM | 11.9 µM | 24.2 µM | 17.8 µM | 36.2 µM | 3.38 µM | 8.29 µM | 1.72 µM | 3.25 µM |
| Cn1cc(-c2ccc3c(c2)ncn3-c2cc(NS(=O)(=O)C3CC3)cc(-c3ccc(F)cc3F)c2)cn1 | 3.45 µM | > 100 µM | 1.53 µM | 8.17 µM | 39.1 µM | > 100 µM | 5.39 µM | 55.8 µM | 22.7 µM | 63.8 µM | 2.8 µM | > 100 µM | 0.59 µM | 8.28 µM | 23.4 µM | > 100 µM | 27.5 µM | > 100 µM | 14.5 µM | 62.3 µM |
| Cc1ccc(-c2nc([P+](c3ccccc3)(c3ccccc3)c3ccccc3)c(N3CCOCC3)o2)cc1 | 0.281 µM | 3.03 µM | 0.706 µM | 4.25 µM | 0.467 µM | 11.8 µM | 0.356 µM | 10.8 µM | 0.378 µM | 3.11 µM | 0.499 µM | 3.27 µM | 0.194 µM | 1.11 µM | 0.468 µM | 10.8 µM | 0.341 µM | 3.42 µM | 0.362 µM | 3.69 µM |
| CCCCCCCCCCCCOC1C(C(COC2OC(C(O)CO)C3OC(C)(C)OC23)OC(=O)Nc2ccccc2)OC2OC(C)(C)OC21 (stereo not given) | 5.85 µM | 17.8 µM | 4.33 µM | 12.6 µM | 9.21 µM | 27.2 µM | 2.14 µM | 5.79 µM | 9.2 µM | 23.2 µM | 0.127 µM | 5.14 µM | 5.2 µM | 16.9 µM | 3.88 µM | 13.3 µM | 9.94 µM | 25.2 µM | 6.52 µM | 19.6 µM |
| O=[N+]([O-])c1ccc(/C=C/c2ccc(/C=C/c3ccc([N+](=O)[O-])cc3[N+](=O)[O-])cc2)c([N+](=O)[O-])c1 | – | > 100 µM | – | > 100 µM | – | > 100 µM | – | > 100 µM | – | > 100 µM | – | > 100 µM | – | > 100 µM | – | > 100 µM | – | > 100 µM | – | > 100 µM |
| N=C(N)SCc1ccc(Cl)c2ccccc12 (tested in a mixture with another compound) | – | 15.9 µM and 24.9 µM | – | 20.5 µM and 22.7 µM | – | 28.5 µM and 27.6 µM | – | 24.5 µM and 28.2 µM | – | 22.1 µM and 23.4 µM | – | 17.3 µM and 4.25 µM | – | 23.1 µM and 19.2 µM | – | 22.4 µM and 21 µM | – | 13.8 µM and 12.9 µM | – | 23.6 µM and 25 µM |
| O=C1[C@H](Cc2ccc(O)cc2)N2C(=O)CCN(C(=O)NCc3ccccc3)[C@H]2CN1Cc1cccc2ccccc12 | 0.781 µM | > 49.9 µM | 3.8 µM | 14.5 µM | 4.49 µM | > 55 µM | 0.916 µM | 12.7 µM | 1.9 µM | 9.46 µM | 1.67 µM | 54.1 µM | 0.399 µM | 25.3 µM | 1.73 µM | 7.23 µM | 2.72 µM | 23.9 µM | 1.71 µM | 8.91 µM |
| Nc1cc(C(F)(F)F)c(-c2nc(N3CCOCC3)nc(N3CCOCC3)n2)cn1 | 0.667 µM | > 31.1 µM | 0.241 µM | 1.07 µM | 0.921 µM | > 100 µM | 0.605 µM | > 100 µM | 0.0983 µM | 0.561 µM | 0.426 µM | 39.8 µM | 0.118 µM | 2.19 µM | 0.299 µM | > 53.3 µM | 0.293 µM | 2.98 µM | 0.313 µM | 11.2 µM |
| CC1=C(C(=O)Nc2ccc3[nH]ncc3c2)C(c2ccc(F)cc2)N=C(c2ccc(C(F)(F)F)nc2)N1 (stereo not given) | 12.4 µM | > 25 µM | 4.31 µM | > 23.5 µM | 11.6 µM | > 25 µM | 13.2 µM | > 25 µM | > 16.5 µM | > 25 µM | 11.9 µM | > 25 µM | 2.4 µM | 15.9 µM | 11.8 µM | > 25 µM | 15.7 µM | > 25 µM | 9.07 µM | > 25 µM |
| COc1cc(/C=C/c2cc(/C=C/c3ccc(O)c(OC)c3)n(C(=O)Nc3ccc(C)cc3)n2)ccc1O | 0.697 µM | 5.95 µM | 0.381 µM | 1.41 µM | 0.465 µM | 3.44 µM | 0.296 µM | 1.53 µM | 0.924 µM | 3.57 µM | 0.291 µM | 1.06 µM | 0.321 µM | 1.36 µM | 0.339 µM | 1.86 µM | 1.06 µM | 4.95 µM | 0.417 µM | 1.99 µM |
| CN1CCN(C(=O)/C=C/c2ccc([N+](=O)[O-])o2)CC1 | 14.2 µM | 27.9 µM | 2.88 µM | 12.4 µM | 15.8 µM | 37.1 µM | 10.5 µM | 22.4 µM | 3.76 µM | 14.3 µM | 10.7 µM | 93.4 µM | 21.6 µM | 75.8 µM | 14.9 µM | 45.1 µM | 7.78 µM | 21.2 µM | 12.9 µM | 26.2 µM |
| O=C(CC1(O)C(=O)Nc2c(Cl)cc(Cl)cc21)c1cccc([N+](=O)[O-])c1 (stereo not given) | – | 30 µM | – | 62.7 µM | – | > 64.4 µM | – | 59 µM | – | 35.9 µM | – | 51.5 µM | – | 68.2 µM | – | > 100 µM | – | 44.8 µM | – | 58.5 µM |
